Results from ChEMBL document CHEMBL1255179, “Fatty acid synthase inhibitors of phenolic constituents isolated from Garcinia mangostana” (Bioorg Med Chem Lett, 2010).

Biological target: Fatty acid synthase (Gallus gallus) (UniProt P12276)
Experiment: Inhibition of FAS at 1000 uM

Fatty acid synthase (Gallus gallus), sequence (P12276 whole entry, looked up): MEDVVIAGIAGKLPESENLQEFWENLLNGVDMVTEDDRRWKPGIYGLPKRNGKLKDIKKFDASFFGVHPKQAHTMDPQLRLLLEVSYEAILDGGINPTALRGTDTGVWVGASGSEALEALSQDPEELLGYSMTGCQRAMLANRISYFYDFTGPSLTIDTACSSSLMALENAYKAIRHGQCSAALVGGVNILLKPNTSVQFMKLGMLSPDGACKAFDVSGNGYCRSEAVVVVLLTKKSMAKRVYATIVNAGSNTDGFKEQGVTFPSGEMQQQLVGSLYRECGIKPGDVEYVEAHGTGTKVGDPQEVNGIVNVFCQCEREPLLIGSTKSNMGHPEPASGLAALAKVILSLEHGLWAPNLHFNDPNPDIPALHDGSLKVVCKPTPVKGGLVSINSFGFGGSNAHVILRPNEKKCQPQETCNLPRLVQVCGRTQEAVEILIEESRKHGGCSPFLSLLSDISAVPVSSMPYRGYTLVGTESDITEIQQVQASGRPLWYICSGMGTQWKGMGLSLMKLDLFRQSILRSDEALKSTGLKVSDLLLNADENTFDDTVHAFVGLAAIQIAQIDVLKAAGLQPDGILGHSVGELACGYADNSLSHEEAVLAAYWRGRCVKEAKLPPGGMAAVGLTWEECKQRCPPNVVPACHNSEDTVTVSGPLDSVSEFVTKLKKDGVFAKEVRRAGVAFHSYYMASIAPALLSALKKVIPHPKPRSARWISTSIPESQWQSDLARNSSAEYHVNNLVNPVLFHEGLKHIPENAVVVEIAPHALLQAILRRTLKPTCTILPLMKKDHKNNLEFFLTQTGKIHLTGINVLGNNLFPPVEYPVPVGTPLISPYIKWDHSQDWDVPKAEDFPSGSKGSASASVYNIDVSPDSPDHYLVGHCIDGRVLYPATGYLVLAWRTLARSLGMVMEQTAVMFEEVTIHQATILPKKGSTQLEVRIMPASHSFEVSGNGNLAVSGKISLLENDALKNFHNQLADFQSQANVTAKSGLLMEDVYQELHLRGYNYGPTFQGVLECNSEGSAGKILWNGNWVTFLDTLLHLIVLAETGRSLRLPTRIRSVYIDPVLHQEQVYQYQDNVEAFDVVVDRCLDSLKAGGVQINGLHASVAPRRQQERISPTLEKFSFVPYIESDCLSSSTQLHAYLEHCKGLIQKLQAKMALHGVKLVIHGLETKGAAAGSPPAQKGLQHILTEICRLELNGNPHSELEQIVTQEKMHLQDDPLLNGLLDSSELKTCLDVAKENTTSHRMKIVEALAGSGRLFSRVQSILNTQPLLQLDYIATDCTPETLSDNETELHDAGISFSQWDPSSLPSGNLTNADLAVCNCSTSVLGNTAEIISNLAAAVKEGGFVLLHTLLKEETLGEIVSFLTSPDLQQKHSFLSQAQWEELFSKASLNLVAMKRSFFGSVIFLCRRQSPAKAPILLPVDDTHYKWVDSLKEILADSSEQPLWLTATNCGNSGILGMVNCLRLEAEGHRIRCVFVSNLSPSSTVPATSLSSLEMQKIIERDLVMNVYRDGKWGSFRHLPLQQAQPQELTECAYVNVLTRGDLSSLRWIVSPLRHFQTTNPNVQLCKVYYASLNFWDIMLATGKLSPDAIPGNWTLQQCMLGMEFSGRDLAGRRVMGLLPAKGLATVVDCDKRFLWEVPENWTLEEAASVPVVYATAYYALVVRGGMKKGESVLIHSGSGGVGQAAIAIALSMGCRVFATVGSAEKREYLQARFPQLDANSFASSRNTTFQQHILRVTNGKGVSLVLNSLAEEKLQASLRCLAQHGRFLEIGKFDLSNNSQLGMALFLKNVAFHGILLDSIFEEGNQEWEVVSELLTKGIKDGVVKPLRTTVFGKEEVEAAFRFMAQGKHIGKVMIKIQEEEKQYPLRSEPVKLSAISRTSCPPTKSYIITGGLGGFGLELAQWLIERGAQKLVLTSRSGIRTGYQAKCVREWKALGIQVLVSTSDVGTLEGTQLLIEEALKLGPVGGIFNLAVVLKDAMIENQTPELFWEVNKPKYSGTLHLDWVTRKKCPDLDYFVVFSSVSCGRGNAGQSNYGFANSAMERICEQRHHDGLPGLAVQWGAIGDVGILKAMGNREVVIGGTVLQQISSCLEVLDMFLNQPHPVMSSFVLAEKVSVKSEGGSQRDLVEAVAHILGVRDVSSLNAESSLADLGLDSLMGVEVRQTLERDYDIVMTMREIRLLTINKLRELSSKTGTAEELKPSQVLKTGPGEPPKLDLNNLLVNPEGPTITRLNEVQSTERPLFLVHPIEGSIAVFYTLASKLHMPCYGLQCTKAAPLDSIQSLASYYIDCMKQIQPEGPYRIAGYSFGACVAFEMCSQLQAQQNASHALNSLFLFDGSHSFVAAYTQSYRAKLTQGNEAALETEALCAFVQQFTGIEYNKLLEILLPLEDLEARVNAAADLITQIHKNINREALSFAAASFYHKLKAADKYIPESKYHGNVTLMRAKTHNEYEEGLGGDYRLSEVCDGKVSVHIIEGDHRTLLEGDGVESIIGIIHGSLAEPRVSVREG

IC50 [µM]	SMILES
> 1000	Oc1cc(O)c2c(c1)O[C@@H](c1ccc(O)c(O)c1)[C@@H](O)C2 [(+)-EPICATECHIN]

Biological target: Fatty acid synthase (Gallus gallus) (UniProt P12276)
Experiment: Inhibition of FAS

IC50 [µM]	SMILES
14.8	O=C(c1cccc(O)c1)c1cc(O)c(O)c(O)c1
8.59	O=C(c1cc(O)cc(O)c1)c1c(O)cc(O)cc1O
17.9	O=c1c2cc(O)c(O)cc2oc2cc(O)cc(O)c12
24.8	COc1cc2oc3cc(O)c(OC)c(CC=C(C)C)c3c(=O)c2c(O)c1CC=C(C)C
41	O=c1c2cc(O)ccc2oc2cc(O)cc(O)c12
91.1	COc1cc(CCCO)cc2cc(-c3ccc4c(c3)OCO4)oc12 [EGONOL]
3.3	CC(C)=CCc1c(O)cc2oc3c(CC=C(C)C)c(O)c(O)c(CC=C(C)C)c3c(=O)c2c1O [GARCINONE E]
40.6	COc1c(O)cc2oc3cc4c(c(O)c3c(=O)c2c1CC=C(C)C)C=CC(C)(C)O4 [MANGOSTANIN]
5.54	COc1c(O)cc2oc3cc(O)c(CC=C(C)C)c(O)c3c(=O)c2c1CC=C(C)C [MANGOSTIN]
49.2	C[C@@H]1O[C@@H](O[C@@H]2C(=O)c3c(O)cc(O)cc3O[C@H]2c2cc(O)cc(O)c2)[C@H](O)[C@H](O)[C@H]1O [NEOSMITILBIN]

SMILES	IC50 [µM]
CC(C)=CCc1c(O)cc2oc3cc(O)c(O)c(CC=C(C)C)c3c(=O)c2c1O	1.24
O=C(O[C@@H]1Cc2c(O)cc(O)cc2O[C@@H]1c1cc(O)c(O)c(O)c1)c1cc(O)c(O)c(O)c1 [EPIGALOCATECHIN GALLATE]	52
